Source: ChEMBL document CHEMBL1201862, “PubChem BioAssay data set” (2004)
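Where inhibition never reached the appropriate level, the endpoint shown equals the highest concentration tested. Otherwise, values were interpolated linearly from a five-concentration, 48-hour dose response in 96-well plates. GI50 marks 50% less growth.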 Active and inactive are the calls of the source. Rule as the data show it: active = GI50 up to about 1.1 µM and inactive = higher.

Assays:
Assay in all cases: DTP human tumour cell line panel, 48 h
SK-MEL-2 = tested on: SK-MEL-2
ACHN = tested on: ACHN
SR = tested on: SR
HT-29 = tested on: HT-29
IGROV-1 = tested on: IGROV-1
UACC-62 = tested on: UACC-62
NCI-H226 = tested on: NCI-H226
SW-620 = tested on: SW-620
SF-539 = tested on: SF-539
SNB-75 = tested on: SNB-75
HOP-92 = tested on: HOP-92
NCI-H23 = tested on: NCI-H23
NCI-H522 = tested on: NCI-H522
K562 = tested on: K562
KM12 = tested on: KM12
UACC-257 = tested on: UACC-257
SF-268 = tested on: SF-268
MOLT-4 = tested on: MOLT-4
HCT-15 = tested on: HCT-15
NCI/ADR-RES = tested on: NCI/ADR-RES

SMILES	GI50 (SK-MEL-2)	GI50 (ACHN)	GI50 (SR)	GI50 (HT-29)	GI50 (IGROV-1)	GI50 (UACC-62)	GI50 (NCI-H226)	GI50 (SW-620)	GI50 (SF-539)	GI50 (SNB-75)	GI50 (HOP-92)	GI50 (NCI-H23)	GI50 (NCI-H522)	GI50 (K562)	GI50 (KM12)	GI50 (UACC-257)	GI50 (SF-268)	GI50 (MOLT-4)	GI50 (HCT-15) [µM]	GI50 (NCI/ADR-RES)
Cc1nc(N(CCO)CCO)c2sc(=S)n(-c3ccccc3)c2n1	> 100 µM (inactive)	> 100 µM (inactive)	> 100 µM (inactive)	> 100 µM (inactive)	> 100 µM (inactive)	> 100 µM (inactive)	> 100 µM (inactive)	> 100 µM (inactive)	> 100 µM (inactive)	10.8 µM (inactive)	> 100 µM (inactive)	> 100 µM (inactive)	> 100 µM (inactive)	> 100 µM (inactive)	> 100 µM (inactive)	> 100 µM (inactive)	> 100 µM (inactive)	> 100 µM (inactive)		
CCOC(=O)c1csc(NC(=O)CCN2CCN(C)CC2)n1	> 100 µM (inactive)	> 100 µM (inactive)	74.3 µM (inactive)	62.1 µM (inactive)		> 100 µM (inactive)	> 100 µM (inactive)	43.2 µM (inactive)	> 100 µM (inactive)	> 100 µM (inactive)	> 100 µM (inactive)	> 100 µM (inactive)		69.8 µM (inactive)	> 100 µM (inactive)	> 100 µM (inactive)		65.5 µM (inactive)	> 100	> 100 µM (inactive)
O=C1CCCCCCCCCCOC(=O)CCCCCCCCCCO1	> 100 µM (inactive)	> 100 µM (inactive)	44.7 µM (inactive)	> 100 µM (inactive)	> 100 µM (inactive)	> 100 µM (inactive)	> 100 µM (inactive)	> 100 µM (inactive)	> 100 µM (inactive)	> 100 µM (inactive)	> 100 µM (inactive)	> 100 µM (inactive)	> 100 µM (inactive)	> 100 µM (inactive)	> 100 µM (inactive)	> 100 µM (inactive)	> 100 µM (inactive)		> 100	
Nc1ccc2c(c1)C1=NNC(=O)CC1C2 (stereo not drawn)	> 100 µM (inactive)			> 100 µM (inactive)	> 100 µM (inactive)	> 100 µM (inactive)	> 100 µM (inactive)	> 100 µM (inactive)	> 100 µM (inactive)	78.5 µM (inactive)	> 100 µM (inactive)	> 100 µM (inactive)	> 100 µM (inactive)	> 100 µM (inactive)	> 100 µM (inactive)	> 100 µM (inactive)	> 100 µM (inactive)		> 100	> 100 µM (inactive)
Cc1nc2c(nc1Cl)nc(Oc1ccc(Cl)cc1)c1ccccc12	> 100 µM (inactive)	39.5 µM (inactive)	> 100 µM (inactive)	> 100 µM (inactive)	55.7 µM (inactive)	48.2 µM (inactive)	27.9 µM (inactive)	50.4 µM (inactive)	90.8 µM (inactive)	26.7 µM (inactive)		45.8 µM (inactive)	50.9 µM (inactive)	> 100 µM (inactive)	> 100 µM (inactive)	> 100 µM (inactive)	56.8 µM (inactive)	> 100 µM (inactive)	> 100	
CC12CCC3C(CCC4CC(OC(=O)Cc5ccc(N(CCCl)CCCl)cc5)CCC43C)C1CCC(=O)N2 (stereo not drawn)	15.5 µM (inactive)	11.2 µM (inactive)	3.67 µM (inactive)	16.4 µM (inactive)	16.2 µM (inactive)		15.7 µM (inactive)	14 µM (inactive)	15.1 µM (inactive)	15 µM (inactive)	16.1 µM (inactive)	13 µM (inactive)	14.7 µM (inactive)	16.9 µM (inactive)	18.2 µM (inactive)		17.1 µM (inactive)	7.41 µM (inactive)	14.7	
O=C1C2c3[nH]c4ccccc4c3C3CCSCC3C2C(=O)N1c1ccccc1 (stereo not drawn)	> 100 µM (inactive)	> 100 µM (inactive)		> 100 µM (inactive)	> 100 µM (inactive)	> 100 µM (inactive)	> 100 µM (inactive)	> 100 µM (inactive)	59.2 µM (inactive)	15.9 µM (inactive)	> 100 µM (inactive)	> 100 µM (inactive)	> 100 µM (inactive)	72.9 µM (inactive)	> 100 µM (inactive)	> 100 µM (inactive)	> 100 µM (inactive)	87.3 µM (inactive)	> 100	
O=C(c1ccccc1)c1cc(Cl)ccc1NCn1nnc2ccccc21	29 µM (inactive)	> 100 µM (inactive)	35.6 µM (inactive)	51.1 µM (inactive)	> 100 µM (inactive)	> 100 µM (inactive)	> 100 µM (inactive)	48.2 µM (inactive)	37.8 µM (inactive)	35.1 µM (inactive)	91.4 µM (inactive)	> 100 µM (inactive)	47.8 µM (inactive)	34.6 µM (inactive)	33.2 µM (inactive)	55 µM (inactive)		42.1 µM (inactive)	42.8	
O=C1CC2(CCC(O)(c3ccc4ccccc4c3)C(C(=O)c3ccc4ccccc4c3)C2)C(=O)c2ccccc2N1 (stereo not drawn)	> 100 µM (inactive)		> 100 µM (inactive)	> 100 µM (inactive)	> 100 µM (inactive)	> 100 µM (inactive)	> 100 µM (inactive)	> 100 µM (inactive)	> 100 µM (inactive)	> 100 µM (inactive)	5.69 µM (inactive)	> 100 µM (inactive)		> 100 µM (inactive)		> 100 µM (inactive)	> 100 µM (inactive)	8.93 µM (inactive)	> 10	> 100 µM (inactive)
N#Cc1c(-c2ccccc2)c(CN2CCCCC2)c(=O)n2c1[nH]c1ccccc12	37.3 µM (inactive)	33.7 µM (inactive)			19.5 µM (inactive)		> 100 µM (inactive)	54.3 µM (inactive)	38.1 µM (inactive)	81.1 µM (inactive)		37.9 µM (inactive)	24.3 µM (inactive)	24.7 µM (inactive)	30.1 µM (inactive)	42 µM (inactive)	45.1 µM (inactive)	0.0764 µM (active)	32.6	43.2 µM (inactive)
CN(C)c1cccc2c1C(=O)C=CC21CCc2ccc(N(C)C)c3c(N(C)C)ccc1c23 (stereo not drawn)		13.4 µM (inactive)	12 µM (inactive)	13.1 µM (inactive)	13.4 µM (inactive)	12.9 µM (inactive)	17.1 µM (inactive)	16.1 µM (inactive)	16.3 µM (inactive)	4.8 µM (inactive)	12.3 µM (inactive)	16.9 µM (inactive)		3.96 µM (inactive)	14.8 µM (inactive)	11.9 µM (inactive)	14.4 µM (inactive)	12 µM (inactive)		56.8 µM (inactive)
C[N+](C)(C)/C=N\c1cccc2c1CCCC2	> 100 µM (inactive)	> 100 µM (inactive)	16 µM (inactive)	58.1 µM (inactive)	75.3 µM (inactive)	> 100 µM (inactive)	58.2 µM (inactive)		> 100 µM (inactive)	56.5 µM (inactive)	17.7 µM (inactive)	79.6 µM (inactive)		18 µM (inactive)		45.1 µM (inactive)	> 100 µM (inactive)	> 100 µM (inactive)	> 100	> 100 µM (inactive)
Cc1c(Cc2ccccc2)n(COCCCO)c(=O)[nH]c1=O	> 100 µM (inactive)	> 100 µM (inactive)		> 100 µM (inactive)	> 100 µM (inactive)	> 100 µM (inactive)	> 100 µM (inactive)	> 100 µM (inactive)	> 100 µM (inactive)	> 100 µM (inactive)	> 100 µM (inactive)	> 100 µM (inactive)	> 100 µM (inactive)	> 100 µM (inactive)	> 100 µM (inactive)	> 100 µM (inactive)	> 100 µM (inactive)	> 100 µM (inactive)	> 100	> 100 µM (inactive)
CC(C)NC(=O)OCc1nnn2c1CCC2	> 100 µM (inactive)	> 100 µM (inactive)	> 100 µM (inactive)	> 100 µM (inactive)	> 100 µM (inactive)	> 100 µM (inactive)		> 100 µM (inactive)	> 100 µM (inactive)	> 100 µM (inactive)	74 µM (inactive)	> 100 µM (inactive)	> 100 µM (inactive)	> 100 µM (inactive)	> 100 µM (inactive)	> 100 µM (inactive)		> 100 µM (inactive)	> 100	
C=C1CC(OC)(C(OC)C(=O)N[C@H]2OCO[C@H]3C2O[C@H](C[C@@H](COC)OC)C(C)(C)C3OC)O[C@H](C)[C@@H]1C (stereo partly drawn)	1.15 µM (inactive)			0.491 µM (active)	1.17 µM (inactive)	1.01 µM (active)	1.16 µM (inactive)	0.859 µM (active)	0.76 µM (active)	1.21 µM (inactive)	0.521 µM (active)	1.18 µM (inactive)		0.815 µM (active)	0.603 µM (active)	1.1 µM (active)		0.522 µM (active)	0.8	2.78 µM (inactive)
CC(=O)O[C@H]1CC[C@@]2(C)[C@H](CC[C@@H]3[C@@H]2CC[C@]2(C)[C@@H](c4ccc(=O)oc4)C[C@H]4O[C@]342)C1	2.7 µM (inactive)			1.77 µM (inactive)	1.08 µM (active)	1.05 µM (active)	2.28 µM (inactive)	0.665 µM (active)	0.348 µM (active)	0.708 µM (active)	0.92 µM (active)	0.327 µM (active)	0.327 µM (active)	0.646 µM (active)	2.36 µM (inactive)	1.06 µM (active)	0.348 µM (active)	0.237 µM (active)	1.08	0.518 µM (active)
